Test results taken from patent US12485114B2, “Materials and methods useful to induce cancer cell death via methuosis or autophagy or a combination thereof” (The University of Toledo, priority 2017, dated 2025).

Key:
[1] = test system: colon, pancreatic, ovarian, lung, and prostate cancer cell lines; assay: Vacuole accumulation in cancer cell lines; format: cell-based
Source text: The vacuoles are originated from macropinocytosomes as confirmed by extracellular fluid phase tracers. Vacuolization has been described previously as methuosis. However, the vacuoles induced here combine the characteristics of methuosis, autophagy, enhanced lysosomal activity, and other distinct characteristics.

cancer cells = assay: Loss of viability and non-apoptotic cell death assessment (nuclei, electron microscopy, annexin, z-VAD-fmk); format: cell-based
Method: Cells treated with BAPT-27 lose their viability within 72 h. […] Through electron microscopy there were clearly no signs of apoptosis (i.e., cell shrinkage, nuclear condensation, blebbing) seen.

[2] = test system: autophagic signaling pathways; assay: Autophagy markers and autophagy inhibitors (acridine orange, LC3B, 3-MA, chloroquine); format: cell-based
Source text: BAPT-27 induced vacuoles that combine both methuosis and autophagy characteristics. […] The author mechanism involved in this non-conventional cell death mechanism is a special type of […] that has been termed methuosis. The treatment of cells by BAPT-27 caused the displacement of the cytoplasm by vacuoles derived from macropinosomes. At early time points, the vacuoles are small in size. The small vacuoles then increase in number, and then fuse with each other over time forming larger vacuoles that cover the whole cytoplasm. Eventually, this causes a disturbance of the cell membrane and burst of the cells, release of fluids, detachment of cell, and death. […] Accordingly, alteration in both autophagic and methuosis mechanisms are involved in the BAPT-27 cell death process.
Without wishing to be bound by theory, it is believed that the mechanism by which BAPT-27 is produces its activities is due to alteration in key signaling pathways and several cellular events: (1) significant activation of macropinocytosis (FIGS. 32-33), and (2) significant alteration in autophagic signaling resulting in the accumulation of autophagic markers such as LC3 II and acridine orange (FIG. 37).
At 6 h treatment, the vacuoles were tiny and smaller in size in combination compared to BAPT-27 alone. (FIG. 48). […] (FIG. 48).

[3] = test system: normal epithelial colon cells (CRL-1459); assay: Morphological assessment of vacuolization in normal cells; format: cell-based; settings: CRL-1459 normal cells
Source text: The methuophagy inducing activities of BAPT-27 were also prominent in different colon cancer cell lines with different genetic profiles. […] (FIG. 42). However, the vacuoles formation was not prominent in normal epithelial colon cells (CRL-1459). (FIG. 42).

β-tubulin = β-tubulin expression and microtubules dynamics; format: cell-based; parameters: β-tubulin expression levels: dose or concentration left out as unconfirmed
ABL1 T315I = target: T1, ABL1 T315I (Homo sapiens, UniProt P00519, T315I); assay: Kinome screening (DiscoverX) against 468 kinases; format: binding
T1 construct: purchased DiscoverX (KINOMEscan)
Method: (§1) FIG. 49A: Image showing the effect of Image was generated using TREEspot™ Software Tool and reprinted with permission from KINOMEscan®, a division of DiscoveRx Corporation, @ DISCOVERX CORPORATION 2010. Selectivity Score or S-score is a quantitative measure of compound selectivity. It was calculated by dividing the number of kinases that BAPT-27 bind to by the total number of distinct kinases tested, excluding mutant variants.

DYRK1A = target: T2, DYRK1A (Homo sapiens, UniProt Q13627); assay: Kinome screening (DiscoverX) against 468 kinases; format: binding
T2 construct: purchased DiscoverX (KINOMEscan)
Method: as §1

FLT3(D835V) = target: T3, FLT3(D835V) (Homo sapiens, UniProt P36888, D835V); assay: Kinome screening (DiscoverX) against 468 kinases; format: binding
T3 construct: purchased DiscoverX (KINOMEscan)
Method: as §1

FLT3(ITD, D835V) = assay: Kinome screening (DiscoverX) against 468 kinases; format: binding
Method: as §1

JNK1 = target: T4, JNK1 (Homo sapiens, UniProt P45983); assay: Kinome screening (DiscoverX) against 468 kinases; format: binding
T4 construct: purchased DiscoverX (KINOMEscan)
Method: as §1

JNK2 = target: T5, JNK2 (Homo sapiens, UniProt P45984); assay: Kinome screening (DiscoverX) against 468 kinases; format: binding
T5 construct: purchased DiscoverX (KINOMEscan)
Method: as §1

JNK3 = target: T6, JNK3 (Homo sapiens, UniProt P53779); assay: Kinome screening (DiscoverX) against 468 kinases; format: binding
T6 construct: purchased DiscoverX (KINOMEscan)
Method: as §1

[4] = target: T7, phosphoinositide 5-kinase (PIKfyve) (Homo sapiens, UniProt Q9Y2I7); assay: Kinome screening (DiscoverX) against 468 kinases; format: binding
T7 construct: purchased DiscoverX (KINOMEscan)
Method: as §1

HCT-116 cells = assay: 3D transmission electron tomography of lysosomes; format: cell-based
Source text: The 3D reconstruction was loaded into the Avizo 3D Visualization software to reveal lysosomal structure through volume rendering and segmentation. FIGS. 50B-50C show increased autophagic vesicles (yellow) and increased lysosomal cargo (green).
(FIG. 50A & FIG. 50B & FIG. 50C).

T5 sequence (P45984 whole entry): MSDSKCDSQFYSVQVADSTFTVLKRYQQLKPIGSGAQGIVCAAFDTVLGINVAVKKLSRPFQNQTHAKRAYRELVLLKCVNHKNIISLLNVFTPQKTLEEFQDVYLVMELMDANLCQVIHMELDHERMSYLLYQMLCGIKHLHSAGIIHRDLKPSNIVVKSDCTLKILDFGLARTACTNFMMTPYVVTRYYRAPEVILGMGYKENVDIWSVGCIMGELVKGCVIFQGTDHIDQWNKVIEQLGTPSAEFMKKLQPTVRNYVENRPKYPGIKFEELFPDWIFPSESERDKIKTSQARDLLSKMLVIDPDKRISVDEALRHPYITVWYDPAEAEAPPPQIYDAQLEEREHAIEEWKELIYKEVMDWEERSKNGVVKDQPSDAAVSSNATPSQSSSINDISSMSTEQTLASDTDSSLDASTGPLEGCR
T6 sequence (P53779 whole entry): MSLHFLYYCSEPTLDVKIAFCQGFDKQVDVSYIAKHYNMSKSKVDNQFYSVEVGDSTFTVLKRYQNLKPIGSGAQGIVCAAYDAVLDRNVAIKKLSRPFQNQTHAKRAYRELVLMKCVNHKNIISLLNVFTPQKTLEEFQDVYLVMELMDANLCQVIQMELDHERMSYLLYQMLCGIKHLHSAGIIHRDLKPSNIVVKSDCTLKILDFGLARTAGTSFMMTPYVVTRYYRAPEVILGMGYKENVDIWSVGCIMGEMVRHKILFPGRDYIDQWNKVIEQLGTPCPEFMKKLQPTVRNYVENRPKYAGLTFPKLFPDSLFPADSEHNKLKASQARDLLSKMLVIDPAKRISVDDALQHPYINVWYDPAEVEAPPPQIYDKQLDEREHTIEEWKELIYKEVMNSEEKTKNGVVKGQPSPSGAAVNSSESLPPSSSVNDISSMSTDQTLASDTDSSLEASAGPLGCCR
T7 sequence (Q9Y2I7 whole entry): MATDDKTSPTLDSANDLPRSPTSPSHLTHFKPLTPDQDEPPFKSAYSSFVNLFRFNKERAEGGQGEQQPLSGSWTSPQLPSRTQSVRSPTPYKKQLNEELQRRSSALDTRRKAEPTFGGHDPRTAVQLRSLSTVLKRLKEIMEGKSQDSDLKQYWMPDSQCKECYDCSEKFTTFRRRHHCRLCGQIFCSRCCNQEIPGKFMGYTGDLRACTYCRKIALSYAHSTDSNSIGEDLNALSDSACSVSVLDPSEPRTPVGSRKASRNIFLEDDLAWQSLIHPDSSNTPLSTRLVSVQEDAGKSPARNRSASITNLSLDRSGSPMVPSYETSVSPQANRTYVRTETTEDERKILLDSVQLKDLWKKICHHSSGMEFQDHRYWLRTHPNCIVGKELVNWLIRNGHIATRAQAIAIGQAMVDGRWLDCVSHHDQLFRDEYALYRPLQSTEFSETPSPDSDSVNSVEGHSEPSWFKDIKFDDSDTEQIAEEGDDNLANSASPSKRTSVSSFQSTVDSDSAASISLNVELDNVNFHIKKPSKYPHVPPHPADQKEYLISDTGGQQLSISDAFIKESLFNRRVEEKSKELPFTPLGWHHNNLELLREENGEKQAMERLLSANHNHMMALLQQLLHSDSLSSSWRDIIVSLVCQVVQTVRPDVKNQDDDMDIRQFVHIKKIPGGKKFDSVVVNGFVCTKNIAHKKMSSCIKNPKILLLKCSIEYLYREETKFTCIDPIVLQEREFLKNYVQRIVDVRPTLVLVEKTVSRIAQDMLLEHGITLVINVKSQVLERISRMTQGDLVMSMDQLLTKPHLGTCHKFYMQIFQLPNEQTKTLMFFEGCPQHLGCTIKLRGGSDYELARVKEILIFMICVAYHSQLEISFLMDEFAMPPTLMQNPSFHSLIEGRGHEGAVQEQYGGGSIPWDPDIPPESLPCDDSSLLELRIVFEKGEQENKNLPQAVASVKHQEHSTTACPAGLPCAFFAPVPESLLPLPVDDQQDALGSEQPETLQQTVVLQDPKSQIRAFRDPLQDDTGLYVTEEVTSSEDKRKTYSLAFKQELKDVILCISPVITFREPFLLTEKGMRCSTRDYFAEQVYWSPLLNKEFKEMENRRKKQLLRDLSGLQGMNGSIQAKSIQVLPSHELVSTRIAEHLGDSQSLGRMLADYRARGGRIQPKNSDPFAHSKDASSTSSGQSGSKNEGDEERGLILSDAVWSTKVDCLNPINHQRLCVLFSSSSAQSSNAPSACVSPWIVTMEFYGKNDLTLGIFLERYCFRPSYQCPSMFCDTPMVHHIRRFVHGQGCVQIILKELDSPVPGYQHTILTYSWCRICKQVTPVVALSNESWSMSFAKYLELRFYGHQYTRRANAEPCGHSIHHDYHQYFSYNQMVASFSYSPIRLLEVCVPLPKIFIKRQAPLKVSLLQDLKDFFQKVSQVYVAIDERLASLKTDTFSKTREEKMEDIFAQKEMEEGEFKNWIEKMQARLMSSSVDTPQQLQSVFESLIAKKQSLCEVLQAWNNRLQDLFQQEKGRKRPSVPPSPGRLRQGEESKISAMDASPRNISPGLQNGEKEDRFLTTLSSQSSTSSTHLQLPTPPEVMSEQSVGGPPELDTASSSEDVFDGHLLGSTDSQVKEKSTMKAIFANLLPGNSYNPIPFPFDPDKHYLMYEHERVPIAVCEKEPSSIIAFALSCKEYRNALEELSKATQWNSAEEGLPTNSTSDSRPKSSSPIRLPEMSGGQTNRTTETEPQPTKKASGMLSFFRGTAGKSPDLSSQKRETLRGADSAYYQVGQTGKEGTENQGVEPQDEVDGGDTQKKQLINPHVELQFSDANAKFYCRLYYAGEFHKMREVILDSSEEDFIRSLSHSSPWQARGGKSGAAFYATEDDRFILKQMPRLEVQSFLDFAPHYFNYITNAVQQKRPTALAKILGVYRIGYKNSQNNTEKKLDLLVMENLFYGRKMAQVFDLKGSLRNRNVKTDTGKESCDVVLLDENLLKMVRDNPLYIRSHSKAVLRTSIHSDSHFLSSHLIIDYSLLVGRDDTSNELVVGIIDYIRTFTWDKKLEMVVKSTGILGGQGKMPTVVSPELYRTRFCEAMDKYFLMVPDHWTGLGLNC
T4 sequence (P45983 whole entry): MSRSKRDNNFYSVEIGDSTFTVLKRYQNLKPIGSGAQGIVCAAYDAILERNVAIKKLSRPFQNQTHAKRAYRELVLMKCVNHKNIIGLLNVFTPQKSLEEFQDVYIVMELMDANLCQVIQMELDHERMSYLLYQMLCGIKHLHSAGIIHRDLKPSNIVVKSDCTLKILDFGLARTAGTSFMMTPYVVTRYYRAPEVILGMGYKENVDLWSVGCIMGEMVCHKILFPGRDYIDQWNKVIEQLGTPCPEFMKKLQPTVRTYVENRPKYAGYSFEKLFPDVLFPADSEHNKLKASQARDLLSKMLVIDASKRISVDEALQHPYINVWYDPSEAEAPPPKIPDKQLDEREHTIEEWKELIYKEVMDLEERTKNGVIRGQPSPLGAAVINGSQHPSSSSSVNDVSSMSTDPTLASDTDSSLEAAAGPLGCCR

## Sc1nnc(-c2ccncc2)n1/N=C/c1c[nH]c2ccccc12 [BAPT-27, 4-(((1H-Indol-3-Yl)Methylene)Amino)-5-(Pyridin-4-Yl)-4H-1,2,4-Triazole-3-Thiol]
[1]
  accumulation of fluid filled-cytoplasmic vacuoles: induces the rapid accumulation of extensive fluid filled-cytoplasmic vacuoles
Cancer cells
  alteration in the intrinsic apoptotic pathways (proapoptotic and antiapoptotic proteins): no alteration
  annexin fluorescence: not changed
  apoptotic changes of nuclei (chromatin condensation or DNA fragmentation): no apoptotic changes
  protection from death by pan-caspase inhibitor z-VAD-fmk: did not protect the cells from death
Cancer cells; cells treated with BAPT-27
  time to loss of viability: ≤ 72 h
Cancer cells; electron microscopy, very high concentration
  cells observed to have died through apoptosis: one in 100 cells
Cancer cells; z-VAD 100 μM, BAPT-27 10 μM, 24 h and 72 hr
  block of vacuoles formation by z-VAD: does not block
[2]
  LC3B cleavage and LC3B loci at the borders of the vacuoles: induced the cleavage of LC3B
  acridine orange in vacuoles (activated acidic compartments): accumulation of acridine orange
  inhibition of vacuoles formation or cytotoxic effects by autophagy inhibitors 3-MA and chloroquine: did not inhibit
[2]; 3-MA 300 μM, BAPT-27 10 μM, 24 h and 72 hr
  block of vacuoles formation by 3-methyl adenine: does not block
[2]; CQ 5 μM, BAPT-27 10 μM, 6 h
  effect of chloroquine on vacuoles formation: delay of vacuoles formation
[2]; CQ 5 μM, BAPT-27 10 μM, 24 h
  effect of chloroquine on vacuoles regaining normal size: could not prevent
[3]
  vacuoles formation: not prominent
β-tubulin
  β-tubulin expression levels: no significant change
β-tubulin; 24 h
  microtubules dynamics: significant disturbance
ABL1 T315I
  inhibitory potency: shows inhibitory potency
DYRK1A
  inhibitory potency: shows inhibitory potency
FLT3(D835V)
  inhibitory potency: shows inhibitory potency
FLT3(ITD, D835V)
  inhibitory potency: shows inhibitory potency
JNK1
  inhibitory potency: shows inhibitory potency
JNK2
  inhibitory potency: shows inhibitory potency
JNK3
  inhibitory potency: shows inhibitory potency
[4]
  inhibitory potency: shows inhibitory potency
HCT-116 cells
  autophagic vesicles and lysosomal cargo: increased autophagic vesicles and increased lysosomal cargo
  lysosomal size: significant increase in lysosomal size
